In US20240287138A1, “CYCLIC PEPTIDES FOR INHIBITING TNF RECEPTOR 1 ACTIVITY” (Merck Sharp & Dohme LLC, priority 2023, published 2024):
Numbered stars: 1 amine (or outer) side, 2 acyl side, 3 side chain; on linkers, the order of the positions; unused ones are H or OH. Square brackets hold non-standard residues; d marks the D form. Peptide text beside a SMILES is read from it. Trp(βS-Me,7-OMe) = COc1cccc2c([C@H](C)[C@H](N)C(=O)O)c[nH]c12; X21 = COc1cccc2c([C@H](C)[C@H](N[*:1])C(=O)[*:2])c(C)[nH]c12; Trp(7-CN) = N#Cc1cccc2c(C[C@H](N)C(=O)O)c[nH]c12; Trp(7-Cl) = N[C@@H](Cc1c[nH]c2c(Cl)cccc12)C(=O)O; Phe(3-COOH) = N[C@@H](Cc1cccc(C(=O)O)c1)C(=O)O; Phe(4-CONH2) = NC(=O)c1ccc(C[C@H](N)C(=O)O)cc1; Phe(4-COOH) = N[C@@H](Cc1ccc(C(=O)O)cc1)C(=O)O; X30 = O=C([C@@H](N[*:1])[C@H](O)c1ccncc1)[*:2]; 4Pal(3S-Me) = C[C@@H](c1ccncc1)[C@H](N)C(=O)O; dPro(trans-4-F) = O=C(O)[C@H]1C[C@H](F)CN1; Pip(5R-OH) = O=C(O)[C@@H]1CC[C@@H](O)CN1; X1 = O=C([C@@H]1CC[C@H](N[*:1])C1)[*:2]; 4Pal = N[C@@H](Cc1ccncc1)C(=O)O; NMeE = CN[C@@H](CCC(=O)O)C(=O)O; dHyp = O=C(O)[C@H]1C[C@H](O)CN1; Cit = NC(=O)NCCC[C@H](N)C(=O)O; Ahp(2) = CCCCC[C@H](N)C(=O)O; αMeS = C[C@](N)(CO)C(=O)O; Nle = CCCC[C@H](N)C(=O)O; Sar = CNCC(=O)O

What was measured:
human TNFR2 ECD protein = target: T1, human TNFR2 ECD protein (Homo sapiens, UniProt P20333); test: SPR off-target binding (selectivity) to human TNFR2 ECD
T1 construct: HRV 3C protease cleavage site (C); 6His (C, cleaved yes); made in house; host or cells: Sf21 insect cells (baculovirus), secreted
T1 sequence (P20333 23-257): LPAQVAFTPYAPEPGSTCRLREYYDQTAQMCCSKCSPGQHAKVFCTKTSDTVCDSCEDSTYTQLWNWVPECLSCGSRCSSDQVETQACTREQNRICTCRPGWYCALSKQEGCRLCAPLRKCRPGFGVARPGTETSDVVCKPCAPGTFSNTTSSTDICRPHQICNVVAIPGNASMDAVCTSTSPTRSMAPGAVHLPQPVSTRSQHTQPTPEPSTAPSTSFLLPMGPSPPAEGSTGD
In short: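 Biotinylated avi-tagged human TNFR1 or TNFR2 ECD, expressed in Sf21 insect cells, captured on streptavidin SPR chip; peptide analytes run in 10 mM HEPES pH 7.4, 150 mM NaCl, 3 mM EDTA, 0.05% P20, 2% DMSO. kon and koff measured, affinity KA calculated.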

[1] = target: T2, human soluble TNFR1 (sTNFR1) (Homo sapiens, UniProt P19438); test: Human sTNFR1-peptide displacement assay (LanthaScreen Eu TR-FRET binding assay)
T2 construct: made in house; host or cells: Sf21 (baculovirus)
T2 sequence (P19438 with tags, fused parts or gaps): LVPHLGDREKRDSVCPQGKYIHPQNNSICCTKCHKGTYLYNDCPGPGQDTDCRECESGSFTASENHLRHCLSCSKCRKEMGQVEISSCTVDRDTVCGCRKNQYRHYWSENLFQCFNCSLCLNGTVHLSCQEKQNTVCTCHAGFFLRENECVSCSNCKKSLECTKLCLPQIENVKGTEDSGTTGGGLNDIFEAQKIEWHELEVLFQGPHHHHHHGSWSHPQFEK
In short: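 Readout is the 665/615 nm TR-FRET ratio (Eu anti-His donor, streptavidin-Alexa647 acceptor), normalized to DMSO and saturating displacer, fit by Morrison-based five-parameter logistic for Kd^app. His-tagged sTNFR1 (1-211) prebound to 100 nM biotinylated peptide SEQ ID NO.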

Row | Compound | Kd (human TNFR2 ECD protein) [nM] | Kd [1] [nM]
1 | CCCCC[C@@H]1NC(=O)[C@@H]2CC[C@@H](C2)NC(=O)[C@H]([C@@H](C)c2c[nH]c3c(OC)cccc23)NC(=O)CN(C)C(=O)[C@H](Cc2ccc(C(N)=O)cc2)NC(=O)[C@H](Cc2ccc(C(N)=O)cc2)NC(=O)[C@](C)(CO)NC(=O)[C@H](Cc2c[nH]c3c(C#N)cccc23)NC(=O)[C@H](Cc2ccc(C(=O)O)cc2)NC(=O)[C@H](CC(N)=O)NC(=O)[C@H]2C[C@H](O)CN2C(=O)[C@H](Cc2c[nH]c3ccccc23)NC(=O)[C@H](CO)NC(=O)[C@H]([C@H](O)c2ccncc2)NC1=O [SEQ ID NO. 16] (cyclo([Ahp(2)][X30]SW[dHyp]N[Phe(4-COOH)][Trp(7-CN)][αMeS][Phe(4-CONH2)][Phe(4-CONH2)][Sar][Trp(βS-Me,7-OMe)][X1])) | > 1000 | 0.11
2 | CCCC[C@@H]1NC(=O)[C@@H]2CC[C@@H](C2)NC(=O)[C@H]([C@@H](C)c2c[nH]c3c(OC)cccc23)NC(=O)CN(C)C(=O)[C@H](Cc2cccc(C(=O)O)c2)NC(=O)[C@H](Cc2ccc(C(N)=O)cc2)NC(=O)[C@](C)(CO)NC(=O)[C@H](Cc2c[nH]c3c(Cl)cccc23)NC(=O)[C@H](Cc2ccc(C(=O)O)cc2)NC(=O)[C@H](CC(N)=O)NC(=O)[C@H]2C[C@H](O)CN2C(=O)[C@H](Cc2c[nH]c3ccccc23)NC(=O)[C@@H]2CC[C@@H](O)CN2C(=O)[C@H](Cc2ccncc2)NC1=O [SEQ ID NO. 17] (cyclo([4Pal][Pip(5R-OH)]W[dHyp]N[Phe(4-COOH)][Trp(7-Cl)][αMeS][Phe(4-CONH2)][Phe(3-COOH)][Sar][Trp(βS-Me,7-OMe)][X1][Nle])) | > 1000 | 0.16
3 | CCCC[C@@H]1NC(=O)[C@@H]2CC[C@@H](C2)NC(=O)[C@H]([C@@H](C)c2c[nH]c3c(OC)cccc23)NC(=O)CN(C)C(=O)[C@H](Cc2ccc(C(N)=O)cc2)NC(=O)[C@H](Cc2ccc(C(N)=O)cc2)NC(=O)[C@](C)(CO)NC(=O)[C@H](Cc2c[nH]c3c(C#N)cccc23)NC(=O)[C@H](Cc2ccc(C(=O)O)cc2)NC(=O)[C@H](CC(N)=O)NC(=O)[C@H](CCC(=O)O)N(C)C(=O)[C@H](Cc2c[nH]c3ccccc23)NC(=O)[C@@H]2CC[C@@H](O)CN2C(=O)[C@H](Cc2ccncc2)NC1=O [SEQ ID NO. 19] (cyclo([4Pal][Pip(5R-OH)]W[NMeE]N[Phe(4-COOH)][Trp(7-CN)][αMeS][Phe(4-CONH2)][Phe(4-CONH2)][Sar][Trp(βS-Me,7-OMe)][X1][Nle])) | > 1000 | 0.08
4 | CCCC[C@@H]1NC(=O)[C@@H]2CC[C@@H](C2)NC(=O)[C@H]([C@@H](C)c2c[nH]c3c(OC)cccc23)NC(=O)CN(C)C(=O)[C@H](Cc2ccc(C(=O)O)cc2)NC(=O)[C@H](Cc2ccc(C(N)=O)cc2)NC(=O)[C@](C)(CO)NC(=O)[C@H](Cc2c[nH]c3c(Cl)cccc23)NC(=O)[C@H](Cc2ccncc2)NC(=O)[C@H](CC(N)=O)NC(=O)[C@H]2C[C@H](F)CN2C(=O)[C@H](Cc2c[nH]c3ccccc23)NC(=O)[C@@H]2CC[C@@H](O)CN2C(=O)[C@H](Cc2ccncc2)NC1=O [SEQ ID NO. 101] (cyclo([4Pal][Trp(7-Cl)][αMeS][Phe(4-CONH2)][Phe(4-COOH)][Sar][Trp(βS-Me,7-OMe)][X1][Nle][4Pal][Pip(5R-OH)]W[dPro(trans-4-F)]N)) | > 1000 | 0.05
5 | CCCC[C@@H]1NC(=O)[C@@H]2CC[C@@H](C2)NC(=O)[C@H]([C@@H](C)c2c(C)[nH]c3c(OC)cccc23)NC(=O)CN(C)C(=O)[C@H](Cc2ccc(C(=O)O)cc2)NC(=O)[C@H](Cc2ccc(C(N)=O)cc2)NC(=O)[C@](C)(CO)NC(=O)[C@H](Cc2c[nH]c3c(Cl)cccc23)NC(=O)[C@H](Cc2ccc(C(=O)O)cc2)NC(=O)[C@H](CC(N)=O)NC(=O)[C@H]2C[C@H](O)CN2C(=O)[C@H](Cc2c[nH]c3ccccc23)NC(=O)[C@@H]2CC[C@@H](O)CN2C(=O)[C@H](Cc2ccncc2)NC1=O [SEQ ID NO. 106] (cyclo([4Pal][Pip(5R-OH)]W[dHyp]N[Phe(4-COOH)][Trp(7-Cl)][αMeS][Phe(4-CONH2)][Phe(4-COOH)][Sar][X21][X1][Nle])) | > 1000 | 0.05
6 | CCCCC[C@@H]1NC(=O)[C@@H]2CC[C@@H](C2)NC(=O)[C@H]([C@@H](C)c2c[nH]c3c(OC)cccc23)NC(=O)CN(C)C(=O)[C@H](Cc2ccc(C(N)=O)cc2)NC(=O)[C@H](Cc2ccc(C(N)=O)cc2)NC(=O)[C@](C)(CO)NC(=O)[C@H](Cc2c[nH]c3c(C#N)cccc23)NC(=O)[C@H](Cc2ccc(C(=O)O)cc2)NC(=O)[C@H](CC(N)=O)NC(=O)[C@H]2C[C@H](O)CN2C(=O)[C@H](Cc2c[nH]c3ccccc23)NC(=O)[C@H](CCCNC(N)=O)NC(=O)[C@H]([C@@H](C)c2ccncc2)NC1=O [SEQ ID NO. 110] (cyclo([Ahp(2)][4Pal(3S-Me)][Cit]W[dHyp]N[Phe(4-COOH)][Trp(7-CN)][αMeS][Phe(4-CONH2)][Phe(4-CONH2)][Sar][Trp(βS-Me,7-OMe)][X1])) | – | 0.14
